Test [1] has as its target S-adenosylmethionine decarboxylase proenzyme (Escherichia coli) (UniProt P0A7F6). The test can be described thus: Compound was evaluated for its inhibitory activity against AdoMet-DC from Escherichia coli.
Test [2] in a line: Compound was evaluated to inactivate the bacterial AdoMet-DC.

What is called IC50 is the concentration that gives 50% inhibition.

Structures can show the parent of a compound that is named as a salt.

S-adenosylmethionine decarboxylase proenzyme (Escherichia coli), sequence (P0A7F6 whole entry, looked up): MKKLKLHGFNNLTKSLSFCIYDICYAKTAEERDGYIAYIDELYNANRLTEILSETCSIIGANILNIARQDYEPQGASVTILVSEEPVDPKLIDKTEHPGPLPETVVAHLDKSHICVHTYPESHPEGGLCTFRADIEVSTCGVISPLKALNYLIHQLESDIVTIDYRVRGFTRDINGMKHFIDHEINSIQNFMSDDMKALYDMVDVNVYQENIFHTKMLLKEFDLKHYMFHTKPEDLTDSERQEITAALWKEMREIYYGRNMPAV

The molecule `N#CC(N)CCSC[C@H]1O[C@@H](n2cnc3c(N)ncnc32)[C@H](O)[C@@H]1O` (stereo not given in full) returned an IC50 in test [1] of 179 µM.

The molecule `N#CC(N)CCCSC[C@H]1O[C@@H](n2cnc3c(N)ncnc32)[C@H](O)[C@@H]1O` (stereo not given in full) showed a half-inhibitory concentration (IC50) in test [1] of 205 µM.

On to `C[S+](CCCC(N)C#N)C[C@H]1O[C@@H](n2cnc3c(N)ncnc32)[C@H](O)[C@@H]1O` (stereo partly drawn) [2-amino-5-({[(2S,3S,4R)-5-(6-amino-9H-purin-9-yl)-3,4-dihydroxyoxolan-2-yl]methyl}(methyl)-sulfanyl)pentanenitrile dihydrobromide], for which the IC50 in test [1] amounted to 50 µM.

With `C[S+](CCC(N)C#N)C[C@H]1O[C@@H](n2cnc3c(N)ncnc32)[C@H](O)[C@@H]1O` (stereo partly drawn) [2-amino-4-({[(2S,3S,4R)-5-(6-amino-9H-purin-9-yl)-3,4-dihydroxyoxolan-2-yl]methyl}(methyl)-sulfanyl)butanenitrile dihydrobromide], the Ki in test [2] worked out at 31.1 µM. For the same molecule, the IC50 in test [1] was 9 µM.

These data come from BindingDB's records for doi:10.1016/S0960-894X(01)80770-8 (1993).
